Test results: paper PMC10376326, “Novel Acylselenourea Derivatives: Dual Molecules with Anticancer and Radical Scavenging Activity” (Antioxidants, 2023)

Experiments:
[1] = DPPH radical scavenging assay; format: biochemical
In short: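 Acylselenoureas at 0.003 and 0.03 mg/mL (final dilutions from DMSO stock, via methanol) mixed with DPPH• prepared at 0.04 mg/mL in methanol. Absorbance decrease at 517 nm followed 0–120 min; % scavenging calculated relative to negative control, triplicates.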

[2] = tested on: MDA-MB-231 (breast) cancer cell line; experiment: MTT cell viability assay, MDA-MB-231; format: cell-based, human; settings: for activity at 10 µM / activity at 50 µM: Homo sapiens, MDA-MB-231, 48 h; for activity at 10 µM: read-out: Cell growth %, MDA-MB-231, 10 µM, 48 h, MTT; for activity at 50 µM: read-out: Cell growth %, MDA-MB-231, 50 µM, 48 h, MTT
In short: (§1)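 MDA-MB-231, HTB-54 and DU-145 grown in RPMI 1640, HT-29 in McCoy's 5A (10% FBS). Output is % cell growth; IC50 determined; ≥3 experiments in quadruplicate.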

[3] = tested on: HTB-54 (lung) cancer cell line; experiment: MTT cell viability assay, HTB-54; format: cell-based, human; settings: for activity at 10 µM / activity at 50 µM: Homo sapiens, HTB-54, 48 h; for activity at 10 µM: read-out: Cell growth %, HTB-54, 10 µM, 48 h, MTT; for activity at 50 µM: read-out: Cell growth %, HTB-54, 50 µM, 48 h, MTT
[4] = tested on: DU-145 (prostate) cancer cell line; experiment: MTT cell viability assay, DU-145; format: cell-based, human; settings: for activity at 10 µM / activity at 50 µM: Homo sapiens, DU-145, 48 h; for activity at 10 µM: read-out: Cell growth %, DU-145, 10 µM, 48 h, MTT; for activity at 50 µM: read-out: Cell growth %, DU-145, 50 µM, 48 h, MTT
In short: as §1

[5] = tested on: HT-29 (colon) cancer cell line; experiment: MTT cell viability assay, HT-29; format: cell-based; settings: Homo sapiens, HT-29, 48 h, read-out: Cell growth %; for activity at 50 µM: HT-29, 50 µM; for activity at 10 µM: HT-29, 10 µM
In short: as §1

[6] = tested on: HTB-54 (lung) cancer cell line; design: method as in PMID 22397496; settings: cited from earlier work
[7] = tested on: non-malignant BEAS-2B lung cell line; design: method as in doi:10.30918/IRJMMS.72.19.022; settings: cited from earlier work
[8] = tested on: MDA-MB-231, HT-29, HTB-54 and DU-145 cancer cell lines; experiment: MTT cell viability assay, statements over the panel of cancer cell lines; format: cell-based, human; settings: 10 µM, over the four cancer cell lines
Method: Cell lines were purchased from the American Type Culture Collection (ATCC). Cell lines MDA-MB-231, HTB-54, DU-145, and BEAS-2B were cultured in RPMI 1640 medium (Gibco, Thermo Fisher Scientific, Gaithersburg, MD, USA) supplemented with 10% fetal bovine serum (FBS; Gibco), 100 units/mL penicillin, and […] streptomycin (Gibco). HT-29 cell line was grown in McCoy’s 5A (Gibco), 10% FBS, 100 units/mL penicillin, and 100 μg/mL streptomycin. Cells were maintained at 37 °C and 5% CO2. The culture medium was changed every three days.
The cell viability of each compound was measured by MTT colorimetric assay. Each compound was dissolved in DMSO at a concentration of 0.01 M. Each compound was tested at two different concentrations (10 and 50 µM) in MDA-MB-231 (breast), HTB-54 (lung), DU-145 (prostate), and HT-29 (colon) human cancer cell lines. Serial dilutions were prepared with supplemented culture medium. […] IC50 and selectivity indexes (SI) were determined.
Briefly, 1 × 10^4 tumor cells per well were grown in 96-well plates for 24 h. Then, these cells were incubated for 48 h with either DMSO (control) or a different concentration of each of the tested compounds. The cell viability was determined by adding 20 μL of MTT two hours and a half before the termination point. After this time, the culture medium was removed. The resulting formazan crystals were dissolved in 50 μL of DMSO, and the absorbance was measured at 570 nm. Results are expressed as % cell growth. The data were obtained from at least three independent experiments performed in quadruplicate.

| SMILES | inhibition ([1]; 0.003 mg/mL, 0 min) [%] | inhibition ([1]; 0.003 mg/mL, 5 min) [%] | inhibition ([1]; 0.003 mg/mL, 15 min) [%] | inhibition ([1]; 0.003 mg/mL, 30 min) [%] | inhibition ([1]; 0.003 mg/mL, 60 min) [%] | inhibition ([1]; 0.003 mg/mL, 90 min) [%] | inhibition ([1]; 0.003 mg/mL, 120 min) [%] | inhibition ([1]; 0.03 mg/mL, 0 min) [%] | inhibition ([1]; 0.03 mg/mL, 5 min) [%] | inhibition ([1]; 0.03 mg/mL, 15 min) [%] | inhibition ([1]; 0.03 mg/mL, 30 min) [%] | inhibition ([1]; 0.03 mg/mL, 60 min) [%] | inhibition ([1]; 0.03 mg/mL, 90 min) [%] | inhibition ([1]; 0.03 mg/mL, 120 min) [%] | melting point [°C] | activity at 10 µM [2] [%] | activity at 50 µM [2] [%] | activity at 10 µM [3] [%] | activity at 50 µM [3] [%] | activity at 10 µM [4] [%] | further results |
| --- | --- | --- | --- | --- | --- | --- | --- | --- | --- | --- | --- | --- | --- | --- | --- | --- | --- | --- | --- | --- | --- |
| C#CCNC(=[Se])NC(=O)/C=C/c1ccco1 [Compound 3.III, (E)-3-(furan-2-yl)-N-(prop-2-in-1-ylcarbamoselenoyl)acrylamide] | 0.9 ± 1.9 | 1.2 ± 1.8 | 1.9 ± 1.7 | 2.7 ± 1.7 | 4.1 ± 1.7 | 5.3 ± 1.7 | 6.2 ± 1.6 | 2.6 ± 1.3 | 6.3 ± 1.1 | 10.9 ± 0.9 | 17.5 ± 0.4 | 28.4 ± 0.4 | 37.1 ± 0.3 | 45.9 ± 0.6 | 118 to 119 | 66.8 ± 7.2 | 20.1 ± 8 | 74.2 ± 4 | 35.3 ± 5.7 | 86.5 ± 9.3 | activity at 50 µM [4]: 24.7 ± 4.9%; activity at 50 µM [5]: 51.4 ± 6% |
| N.N.[Cl][Pt][Cl] [Cisplatin, reference compound] | – | – | – | – | – | – | – | – | – | – | – | – | – | – | – | – | – | – | – | – | IC50 [6]: 13.7 µM; IC50 ([2]; Breast, MTT, 48 h, read-out: IC50 MDA-MB-231): 5.5 ± 0.5 µM; SI ([3]; IC50 (BEAS-2B)/IC50 (HTB-54)): 0.63; IC50 ([4]; Prostate, MTT, 48 h, read-out: IC50 DU-145): 6.2 ± 0.1 µM; IC50 [7]: 8.63 µM |
| C=CCNC(=[Se])NC(=O)/C=C/c1ccc2c(c1)OCO2 [Compound 9.II, (E)-N-(allylcarbamoselenoyl)-3-(benzo[d][1,3]dioxol-5-yl)acrylamide] | 0.1 ± 2.9 | 0.3 ± 2.7 | 0.8 ± 2.5 | 1.5 ± 2.4 | 2.3 ± 2.3 | 3 ± 2.3 | 3.5 ± 2.3 | 1.9 ± 1.9 | 6.1 ± 1.7 | 10.1 ± 1.2 | 14.7 ± 1.1 | 22.3 ± 1.2 | 29 ± 1.2 | 35.2 ± 1.3 | 187 to 188 | 83.8 ± 7.9 | 71.3 ± 5.3 | 82.8 ± 2.8 | 60 ± 4.5 | 110 ± 9 | cell growth % ([3]; HTB-54, 10 µM, 48 h, MTT): 82.8%; activity at 50 µM [4]: 69.6 ± 6.1%; activity at 10 µM [5]: 113 ± 7.8%; activity at 50 µM [5]: 103 ± 7.1% |
| CCCNC(=[Se])NC(=O)/C=C/c1ccccc1 [Compound 6.I, N-(propylcarbamoselenoyl)cinnamamide] | 1.5 ± 0.5 | 2 ± 0.8 | 2.5 ± 0.8 | 3.1 ± 0.6 | 4.4 ± 0.6 | 5.6 ± 0.7 | 6.6 ± 0.8 | 2.3 ± 1 | 10.1 ± 1.1 | 15.4 ± 1.3 | 21.8 ± 1.1 | 35.1 ± 1.2 | 50.2 ± 0.8 | 66.4 ± 0.2 | 125 to 126 | 88.4 ± 16.3 | 23.5 ± 12.9 | 84.6 ± 5.9 | 36.2 ± 5.7 | 19.5 ± 2 | activity at 50 µM [4]: 12.6 ± 1%; activity at 10 µM [5]: 60.4 ± 9.7%; activity at 50 µM [5]: 25.1 ± 5% |
| C=CCNC(=[Se])NC(=O)/C=C/c1ccco1 [Compound 3.II, (E)-N-(allylcarbamoselenoyl)-3-(furan-2-yl)acrylamide] | 0 | 0 | 0 | 0.5 ± 2.9 | 1.7 ± 2.9 | 2.5 ± 2.9 | 3.3 ± 2.9 | 0.7 ± 2.7 | 5.2 ± 1.8 | 9 ± 1.6 | 14.3 ± 1.1 | 23.7 ± 0.8 | 31.7 ± 0.1 | 39.6 ± 0.1 | 104 to 105 | 79.6 ± 7.7 | 14.1 ± 5.8 | 73.1 ± 3 | 35.4 ± 8.9 | 93.6 ± 14.7 | activity at 50 µM [4]: 10.4 ± 4.1%; activity at 10 µM [5]: 63.3 ± 15%; activity at 50 µM [5]: 33.2 ± 6.1%; cell growth % [8]: 54.8–95.0% |
| C=CCNC(=[Se])NC(=O)/C=C/c1cccs1 [Compound 4.II, (E)-N-(allylcarbamoselenoyl)-3-(thiophen-2-yl)acrylamide] | 0 | 0 | 0 | 0.5 ± 2.5 | 1.7 ± 2.4 | 2.5 ± 2.4 | 3.1 ± 2.3 | 0.9 ± 2.8 | 6.1 ± 1.7 | 9.9 ± 1.5 | 15.5 ± 1.4 | 25.6 ± 1.3 | 35 ± 0.6 | 44.3 ± 0.6 | 104 to 105 | 81.1 ± 6.7 | 17.6 ± 6.6 | 79.2 ± 9.2 | 44.2 ± 6.2 | 67.2 ± 7.1 | activity at 50 µM [4]: 13.8 ± 1.2%; activity at 10 µM [5]: 100 ± 7.1%; activity at 50 µM [5]: 32.9 ± 5% |
